The record followed here is patent US20120071513A1, “Compositions and Their Use as Anti-Tumor Agents” (COMPASS PHARMACEUTICALS LLC, priority 2004, published 2012).

The test system of assay [1] is A2780 human ovarian adenocarcinoma xenografts. The assay can be described thus: in vivo anti-tumor activity, A2780 xenografts. The conditions noted are these: 15 mg/kg, Day 19, positive control. Also on record: species or system mice. Here is the method: Body weights and tumor measurements were recorded three times weekly. Tumor burden (mg) was estimated from caliper measurements by the formula for the volume of a prolate ellipsoid assuming unit density as: Tumor burden (mg)=(L×W2)/2, where L and W are the respective orthogonal tumor length and width measurements (mm). The primary endpoints used to evaluate efficacy were study day 26 T/C values, complete and partial tumor responses, tumor growth delay, and the number of tumor-free survivors at the end of the study. T/C values were calculated by dividing the treated median tumor mass by the median control tumor mass and multiplying by 100. The USA National Cancer Institute (NCI) considers a compound which produces a % T/C value of 42 of less is active. Complete response (CR) is defined as a decrease in tumor mass to an undetectable size (<50 mg), and a partial response (PR) is defined as a ≧50% decrease in tumor mass from that at first treatment. […] Tumor Growth Delay (T-C) was also used to quantify efficacy. Tumor growth delay for this experiment was expressed as a T-C value, where T and C are the median times in days required for the treatment and control group tumors, respectively, to grow to a selected evaluation size, 750 mg. […]
Test animals were implanted subcutaneously on day 0 with 30 to 60 mg A2780 tumor fragments. […] Tumor mass on day 19 was analyzed by a single factor ANOVA. […]

The subject of assay [2] is A375 human melanoma xenografts. Description: in vivo anti-tumor activity, A375 xenografts. The conditions noted are these: 30 mg/kg. Also noted: species or system mice. As to the method:
The in vivo anti-tumor activity of CP5017808 was evaluated against A375 human melanoma xenografts and ovarian carcinoma.
CP5017808 was dissolved with heat and sonication in a 1:1 mixture of absolute ethanol and CREMAPHOR™ equivalent to 20% of the final desired volume, and then brought to a final volume with 40% hydroxypropyl-β-cyclodextin in water. CP5017808 produced a fine suspension with a pH of 6.2.
Female NCr nu/nu mice (Charles River Laboratory) were used for the study. They were 5-6 weeks old on Day 1 of the experiment. The animals were fed Rodent Diet 5010 (LabDiet™) and water ad libitum. The mice were housed in Thoren™ microisolator caging with Bed-O'Cobs™ bedding. […]
Body weights and tumor measurements were recorded three times weekly. […] T/C values were calculated by dividing the treated median tumor mass by the median control tumor mass and multiplying by 100. […] Tumor Growth Delay (T-C) was also used to quantify efficacy. Tumor growth delay for this experiment was expressed as a T-C value, where T and C are the median times in days required for the treatment and control group tumors, respectively, to grow to a selected evaluation size, 750 mg.
The time for individual tumors to reach evaluation size, time to fold growth, and tumor volume doubling times were analyzed by a single factor ANOVA. […]

On to `CC(=O)O[C@H]1C(=O)[C@@]2(C)[C@H]([C@H](OC(=O)c3ccccc3)[C@]3(O)C[C@H](OC(=O)[C@H](O)[C@@H](NC(=O)c4ccccc4)c4ccccc4)C(C)=C1C3(C)C)[C@]1(OC(C)=O)CO[C@@H]1C[C@@H]2O` [Taxol®], for which the “% T/C value” in assay [1] is on record as 15%.
In turn, `CC(=O)O[C@@]12CO[C@@H]1C[C@H](O)[C@@]1(C)C(=O)[C@H](O)C3=C(C)[C@@H](OC(=O)[C@H](O)[C@@H](NC(=O)OC(C)(C)C)c4ccccc4)C[C@@](O)([C@@H](OC(=O)c4ccccc4)[C@H]21)C3(C)C` [docetaxel] showed a tumor growth delay in assay [2] (evaluation size 750 mg) of 10 days. Also, the “% T/C value” in assay [2] (study day 26, positive control) worked out at 32%.
